Experimental data: patent US20250262210A1, “LZTR1 MUTANT TUMORS AND METHODS THEREOF” (The Trustees of Columbia University in the City of New York, priority 2022, published 2025)
Peptide text beside a SMILES is read from it. * marks the point of attachment. Cbz = O=C(OCc1ccccc1)*

Columns and labels:
[1] = tested on: subcutaneous tumors of schwannoma-like cells from Lztr1fl/fl;Cdkn2Afl/fl;GFAP-Cre+ mice (E0954); type: in vivo; conditions: single RTK inhibitor; summary in the discussion
Protocol: Mice were weighted daily. Tumor diameters were measured every 2 days with caliper and tumor volumes estimated using the formula: width2×length/2=V (mm3). Mice were euthanized when the tumor size reached 2,000 mm3 or if the skin was ulcerated, according to IACUC recommendation. All experiments were performed according to the guidelines of the Institutional Animal Care and Use Committee at Columbia University.

[2] = tested on: schwannoma-like cells from Lztr1fl/fl;Cdkn2Afl/fl;GFAP-Cre+ mice (E0954); assay: Clonogenic assay of schwannoma-like cells; type: cell-based, mouse; conditions: single dose; 72 hr treatment; FIG. 15C-F
Protocol: 500 cells were seeded in triplicate wells of 6-well plates. […] Cells were stained with crystal violet and colonies were counted.

RIT1 = assay: LZTR1-mediated reduction of RIT1 in transfected HEK 293T cells (western blot); type: cell-based; conditions: HEK 293T cells with FLAG-RIT1 and LZTR1-FLAG; FIG. 10A, 10C
Protocol: (§2) Cells were lysed in RIPA buffer (50 mM Tris-HCl, pH 7.5, 150 mM NaCl, 1 mM EDTA, 1% NP40, 0.5% sodium deoxycholate, 0.1% sodium dodecyl sulphate, 1.5 mM Na3VO4, 50 mM sodium fluoride, 10 mM sodium pyrophosphate, 10 mM β-glycerolphosphate and EDTA-free protease inhibitor cocktail (Roche)) or NP40 lysis buffer (50 mM Tris-HCl, pH 7.5, 150 mM NaCl, 1 mM EDTA, 1% NP40, 1.5 mM Na3VO4, 50 mM sodium fluoride, 10 mM sodium pyrophosphate, 10 mM β-glycerolphosphate and EDTA-free protease inhibitor cocktail (Roche)). Lysates were centrifuged 14,000 r.p.m. for 15 min at 4° C. and supernatant were collected. […] Beads were washed with lysis buffer four times and eluted in 2×SDS sample buffer. Immunoprecipitates or lysates were separated by SDS-PAGE and transferred to polyvinylidene difluoride or nitrocellulose membranes. Membranes were blocked in TBS-T (0.1% Tween20) with 5% non-fat milk or BSA and probed with primary antibodies.

EGFR [3] = assay: LZTR1-mediated destabilization of EGFR in transfected HEK 293T cells (western blot); type: cell-based; conditions: HEK 293T cells with EGFR-GFP and LZTR1-FLAG; FIG. 3A, 3C
Protocol: as §2

EGFR [4] = assay: Ubiquitylation assay of EGFR in HEK 293T cells; type: cell-based; conditions: MLN4924 1 μM, FIG. 3E
Protocol: (§1) 293T and Hela cells were transfected with plasmid expressing EGFR-GFP, HA-Ub and LZTR1-FLAG as indicated in figures and treated with MLN4924 (1 μM), chloroquine (CQ, 100 μM), MG132 (20 μM), or EGF (20 ng/ml or 100 ng/ml) and ubiquitylation assay was performed under denaturing condition. Cells were lysed in 1% SDS and boiled at 100° C. for 10 min. Lysates were diluted with tris buffered saline containing 1% N P40 and centrifuged 14000 r.p.m. for 15 min at 4° C. Immunoprecipitation was performed using 500 μg to 1 mg of cellular lysates using HA affinity gel (Sigma, E6779), AXL or EGFR antibodies at 4° C. overnight followed by protein G/A beads for 90 min at 4° C. […] Protein samples were separated by SDS-PAGE and transferred to PV DF membrane and analyzed by western blot.

AXL [5] = assay: LZTR1-mediated destabilization of AXL in transfected HEK 293T cells (western blot); type: cell-based; conditions: HEK 293T cells with AXL-HA and LZTR1-FLAG; FIG. 3B, 3D
Protocol: as §2

AXL [6] = assay: Ubiquitylation assay of AXL in Hela cells; type: cell-based; conditions: chloroquine 100 μM, MG132 20 μM, FIG. 3F
Protocol: as §1

## Nc1nc(Nc2ccc3c(c2)CC[C@@H](N2CCCC2)CC3)nn1-c1cc2c(nn1)-c1ccccc1CCC2 [bemcentinib]
[1]
  therapeutic effect of single treatment: minimal
[2]
  clonogenicity: ineffective

## NS(=O)(=O)OC[C@@H]1C[C@@H](n2ccc3c(N[C@H]4CCc5ccccc54)ncnc32)C[C@@H]1O [MLN4924]
RIT1
  RIT1 reduction by LZTR1: rescued
EGFR [3]
  LZTR1-mediated destabilization of EGFR: rescued
EGFR [4]
  LZTR1-increased formation of high molecular weight polyubiquitylated EGFR: abolished
AXL [5]
  LZTR1-mediated destabilization of AXL: rescued

## C=CC(=O)Nc1cc(Nc2nccc(-c3cn(C)c4ccccc34)n2)c(OC)cc1N(C)CCN(C)C [osimertinib]
[2]
  clonogenicity: ineffective

## CC(C)C[C@@H](C=O)NC(=O)[C@H](CC(C)C)NC(=O)[C@H](CC(C)C)NC(=O)OCc1ccccc1 [MG132] (Cbz-Leu-Leu-Leu-aldehyde)
AXL [6]
  LZTR1-increased polyubiquitylated species of AXL: ineffective

## CCN(CC)CCCC(C)Nc1ccnc2cc(Cl)ccc12 (stereo not shown) [chloroquine]
AXL [6]
  LZTR1-increased polyubiquitylated species of AXL: accumulated at much higher levels

## CC(C)C[C@H](NC(=O)[C@H](Cc1ccccc1)NC(=O)c1cnccn1)B(O)O [bortezomib]
RIT1
  RIT1 reduction by LZTR1: rescued

## CO/C1=C\C(C)=C\[C@@H](C)[C@@H](O)[C@@H](C)C/C(C)=C/C=C/[C@H](OC)[C@@H]([C@@H](C)[C@@H](O)[C@H](C)[C@@]2(O)C[C@@H](O)[C@H](C)[C@@H](C(C)C)O2)OC1=O [bafilomycin A1]
EGFR [3]
  LZTR1-mediated destabilization of EGFR: relieved
AXL [5]
  LZTR1-mediated destabilization of AXL: relieved

## CN(C)C/C=C/C(=O)Nc1cc2c(Nc3ccc(F)c(Cl)c3)ncnc2cc1O[C@H]1CCOC1 [afatinib]
[2]
  clonogenicity: ineffective
